Measurements: ChEMBL document CHEMBL1201862, “PubChem BioAssay data set” (2004)
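Cultured in 96-well plates, cells were exposed to test compound for 48 hours across five concentrations. GI50: concentration for 50% inhibition of growth.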 The source made the active and inactive calls. Cut-off read from the data, not from the text of the source: active = GI50 up to about 1.1 µM and inactive = higher.

Tests used:
Test in all cases: inhibition of tumour cell growth, NCI panel, 48 h
[1] = tested on: MCF7
[2] = tested on: HT-29
[3] = tested on: UO-31
[4] = tested on: SK-OV-3
[5] = tested on: NCI-H522
[6] = tested on: HL-60
[7] = tested on: DMS-273
[8] = tested on: M14
[9] = tested on: OVCAR-8
[10] = tested on: OVCAR-5
[11] = tested on: SNB-19
[12] = tested on: RPMI-8226
[13] = tested on: TK-10
[14] = tested on: HOP-62
[15] = tested on: SK-MEL-2
[16] = tested on: SN12C
[17] = tested on: A549
[18] = tested on: 786-0
[19] = tested on: PC-3
[20] = tested on: MDA-MB-231

SMILES	GI50 [1]	GI50 [2]	GI50 [3]	GI50 [4]	GI50 [5]	GI50 [6]	GI50 [7]	GI50 [8]	GI50 [9]	GI50 [10]	GI50 [11]	GI50 [12]	GI50 [13]	GI50 [14]	GI50 [15]	GI50 [16]	GI50 [17]	GI50 [18]	GI50 [19]	GI50 [20]
COc1cc2c(c(OC)c1OC)C(=O)NCCC2	> 100 µM (inactive)	> 100 µM (inactive)	> 100 µM (inactive)	> 100 µM (inactive)	> 100 µM (inactive)	> 63.1 µM (inactive)	> 100 µM (inactive)	> 100 µM (inactive)	> 100 µM (inactive)	> 100 µM (inactive)	> 100 µM (inactive)	> 100 µM (inactive)	> 100 µM (inactive)	> 100 µM (inactive)	> 100 µM (inactive)	> 100 µM (inactive)	> 100 µM (inactive)	> 100 µM (inactive)		
O=C1C=CC(=O)c2cc(Sc3ccccc3)c(=O)ccc21	5.83 µM (inactive)	20.6 µM (inactive)	11.7 µM (inactive)	26 µM (inactive)	2.32 µM (inactive)	0.877 µM (active)	18.9 µM (inactive)	17.8 µM (inactive)	15.7 µM (inactive)	19.6 µM (inactive)	19.3 µM (inactive)	4.46 µM (inactive)	17.1 µM (inactive)	28.6 µM (inactive)	13.6 µM (inactive)	16.2 µM (inactive)	20.1 µM (inactive)	14.8 µM (inactive)	18.2 µM (inactive)	17.9 µM (inactive)
C=C1C(C)C2C(Cc3ccccc3)NC(=O)C23C(OC(C)=O)/C=C/C(C)(O)CC(C)C/C=C/C3C1O (stereo not given)	6.56 µM (inactive)	0.138 µM (active)	0.0618 µM (active)	0.242 µM (active)	2.26 µM (inactive)	5.02 µM (inactive)	6.1 µM (inactive)	99.1 µM (inactive)	54.6 µM (inactive)	70.6 µM (inactive)	0.0863 µM (active)	9.42 µM (inactive)	60.1 µM (inactive)	0.0435 µM (active)	8.97 µM (inactive)	44.3 µM (inactive)	0.603 µM (active)	0.632 µM (active)		0.222 µM (active)
CC1=C2C(=CC(C)(C)[C@@H]2O)C(=O)[C@](C)(O)C12CC2 [ILLUDIN M]		< 0.0126 µM (active)	0.0246 µM (active)	0.0197 µM (active)	0.0115 µM (active)	0.0156 µM (active)	0.01 µM (active)	0.0156 µM (active)	< 0.018 µM (active)	0.0183 µM (active)	0.027 µM (active)	0.839 µM (active)	< 0.0182 µM (active)	0.0185 µM (active)	0.0134 µM (active)	0.0236 µM (active)	0.0275 µM (active)	0.01 µM (active)	0.0138 µM (active)	
